Measured values published in PMC12349723, “Computationally accelerated identification of P-glycoprotein inhibitors” (PLOS One, 2025).
Values joined by “and” are separate entries in the source; they are usually repeats but may differ in a detail not shown here. Identical values can stand only once. Like-named read-outs stand apart in the source and are kept apart here.

How the values were obtained:
[1] = tested on: A2780-ADR cells; test: MTT viability assay, reversal of MDR in P-gp overexpressing A2780-ADR cells; assay type: cell-based, human; details: for Reversal of MDR in A2780-ADR cells: 15 µM compound with or without 500 nM PTX, 48 h, MTT
Method: The chemotherapeutic sensitive DU145 human prostate cancer cells and the multidrug resistant sub-line, DU145-TXR, were generous gifts from Dr. Evan Keller (University of Michigan, Ann Arbor, MI). The MDR, P-gp overexpressing DU145-TXR cells were maintained under positive selection pressure by supplementing complete medium with 10 nM paclitaxel (Acros Organics, NJ). In addition to the aforementioned cell lines, the chemotherapeutic sensitive A2780 ovarian cancer cells (93112519, Sigma) and the multidrug resistant A2780-ADR (93112520, Sigma) were maintained in complete RPMI media consisting of RPMI-1640 with L-glutamine, 10% fetal bovine serum (FBS; Corning), 100 U/mL penicillin and 100 μg/mL streptomycin in a humidified incubator at 37 °C and 5% CO2. The MDR, P-gp overexpressing A2780-ADR cell line was maintained under positive selection pressure by supplementing complete medium with 100 nM doxorubicin (Fisher Scientific, NJ). The non-cancerous HFL1 (human lung fibroblast) cell line cell line was a generous gift from Dr. Robert Harrod (Southern Methodist University, Dallas, TX) and was maintained in complete F12K media consisting of F12K with 10% fetal bovine serum, 100 U/mL penicillin, and 100 µg/mL streptomycin (Gibco). Flasks and 96 well plates that were used with the non-cancerous line HFL1 were pre-treated with 0.1 mg/ml Collagen Type 1 (Gibco) and rinsed with PBS (Fisher).
Culture of the DU145, DU145-TXR, and HFL1 cell lines was performed as described in [8]. Culture of the A2780 and A2780-ADR cell lines was performed as described in [9]. MTT assays were performed as described in [8] with minor modifications. LC-MS/MS accumulation assays were performed as described in {Nanayakkara, 2018 #173} [9] with some modifications. […] The inhibitor concentration was lowered to 15 µM here, as the goal of the study was to identify compounds that were effective in reversing MDR at low concentrations, and to determine if the expanded virtual-assisted methods improved on our first-draft attempt. Compounds 56–98 were pre-screened using Resazurin cell viability assays: cells were incubated with 15 µM compound with or without 500 nM PTX for 48 hours, after which cell survival was assessed similar to [39]. Data represent the mean of two separate experiments, with n = 3 samples per experiment (n = 6 total) (S4 Table). The top performing compounds from this initial screen were re-tested with MTT viability assays against DU145-TXR cells, as described below.
MTT assays measure the reduction of yellow, water soluble 3-(4,5-dimethylthiazol-2-yl)-2,5-diphenyltetrazolium bromide (MTT) to blue, insoluble formazan crystals by cellular reductase processes in living cells. Cells were trypsinized from monolayers and seeded in complete medium in 96 well plates. Cancerous cell lines (DU145, DU145-TXR, A2780, A2780-ADR) were seeded at 3,000 cells per well in complete RPMI medium. The non-cancerous HFL1 line was seeded at 4,000 cells per well in complete F12K medium, in collagen-treated plates (Collagen Type 1, Gibco). Cells were incubated with experimental compounds for 48 hours at 37 °C and 5% CO2 in a humidified incubator. At 48 hours, MTT was added (20 µL/well of 5 mg/mL MTT in PBS) to each well. After incubation for 4 hours, the media was removed, and the formazan crystals were dissolved in 100 µL DMSO per well. Plates containing the semi-adherent A2780 or A2780-ADR lines were spun at 1400 rpm for 3 minutes prior to aspiration of media, and the addition of DMSO. Plates were shaken for 10 minutes at 500 rpm on an Orbital shaker (LabDoctor from MidSci, St Louis, MO). The absorbance was measured at 570 nm using a Bio-Tek Cytation 5 (Bio-Tek, Winooski, VT). The measured absorbance value was correlated with the number of metabolically active cells in that well, corrected for absorbance of media. […]

[2] = tested on: P-gp; test: SWISS-ADME prediction of P-gp transport substrate; details: prediction compared to the LC-MS/MS intracellular accumulation data
Text: Identifying P-gp inhibitors that are not transport substrates remains inherently challenging. To that end, computational tools such as the SWISS-ADME server attempt to use a molecule’s unique chemical and structural characteristics to predict whether it is likely to be a P-gp transport substrate. Our LC-MS/MS assays allowed us to retroactively test the validity of predictions from SWISS-ADME. […] Alternative identifiers for the molecules identified in this study are shown in S7 Table.
S1 Table. Known P-gp Inhibitors and Predicted Chemical Properties. A non-exhaustive list of known P-gp inhibitors and their selected chemical properties ^[64, 65]. Clinical trial outcomes were adapted from ^[10, 11]. Compounds were evaluated using the SWISS-ADME server ^[54]. […] “Predicted P-gp Substrate” - predicted by SWISS-ADME to be a transport substrate of P-gp. “Known P-gp Substrate” – In addition to being P-gp inhibitors, these molecules are: known transport substrates of P-gp, known non-transport substrates of P-gp, unknown whether it is a transport substrate of P-gp ^[66-68]. If the molecule is designated in a specific generation of P-gp inhibitors - First Generation P-gp inhibitors, Second generation P-gp inhibitors, Third generation P-gp inhibitors.

[3] = A2780-ADR cells, 15 µM compound + 500 nM PTX, mean of 12 samples
[4] = A2780-ADR cells, 15 µM compound alone, single samples (trials 1-3, samples 1-4)
[5] = Homo sapiens, A2780 ADR, A2780-ADR cells, 15 µM compound alone, mean of 12 samples, read-out: Mean % Survival
[6] = Homo sapiens, A2780 ADR, A2780-ADR cells, 15 µM compound alone, single samples (trials 1-3, samples 1-4), read-out: % Survival (individual sample)
[7] = A2780-ADR cells, 15 µM compound + 500 nM PTX, single samples (trials 1-3, samples 1-4)
[8] = A2780-ADR cells, 1 µM compound + 500 nM PTX, mean of 12 samples

SMILES | Mean % Survival [1, 3] | % Survival (individual sample) [1, 4] | viability at 15 µM [1, 5] | Correct P-gp Substrate Prediction? [2] | Reversal of MDR in A2780-ADR cells [1] | % Survival (individual sample) [1, 7] | also measured
Cn1cnnc1SCc1c(C(=O)O)nnn1-c1nonc1N [Compound 59, Cn1cnnc1SCc1c(nnn1-c1nonc1N)C(O)=O] | 83.9% | 98% and 96% | 93.1% |  |  |  | viability at 15 µM [1, 6]: 95%
Nc1nonc1-n1nnc(C(=O)N/N=C/c2c3ccccc3cc3ccccc23)c1COc1ccc(F)cc1 [Compound 60, Nc1nonc1-n1nnc(C(=O)N\N=C\c2c3ccccc3cc3ccccc23)c1COc1ccc(F)cc1] |  |  |  | No |  |  | 
CCN1CCN(Cc2c(C(=O)N/N=C3/C(=O)N(C)c4ccccc43)nnn2-c2nonc2N)CC1 [Compound 61, CCN1CCN(Cc2c(nnn2-c2nonc2N)C(=O)N\N=C2\C(=O)N(C)c3ccccc23)CC1] |  |  |  | Yes |  |  | 
O=C(c1cc2ccccc2[nH]1)N1CCN(S(=O)(=O)c2cccc3nonc23)CC1 [Compound 66, O=C(N1CCN(CC1)S(=O)(=O)c1cccc2nonc12)c1cc2ccccc2[nH]1] |  |  |  | No |  |  | 
O=C(c1nc(-c2ccc3cc[nH]c3c2)no1)N1CCN(c2nsc3ccccc23)CC1 [Compound 70, O=C(N1CCN(CC1)c1nsc2ccccc12)c1nc(no1)-c1ccc2cc[nH]c2c1] | 62.6% | 116% | 114% | No | reversed MDR in A2780-ADR cells | 62% and 59% and 61% | 
COc1ccc(OC)c(NC(=O)c2nnn(-c3ccc4noc(-c5ccccc5)c4c3)c2C)c1 [Compound 71, COc1ccc(OC)c(NC(=O)c2nnn(c2C)-c2ccc3noc(-c4ccccc4)c3c2)c1] |  |  |  | No |  |  | 
Cc1onc(-c2ccccc2)c1-c1nnc(Cn2cnc3c(oc4ccccc43)c2=O)o1 [Compound 78, Cc1onc(c1-c1nnc(Cn2cnc3c4ccccc4oc3c2=O)o1)-c1ccccc1] | 41.5% | 81% and 88% | 82.7% | No | reversed MDR in A2780-ADR cells | 48% and 26% | 
NS(=O)(=O)c1cccc(NC(=O)CSc2nnnn2C2CC2)c1 [Compound 89, NS(=O)(=O)c1cccc(NC(=O)CSc2nnnn2C2CC2)c1] | 74.6% | 90% and 86% | 89.9% |  |  | 54% | viability at 15 µM [1, 6]: 91%
O=S(=O)(CCSc1nnc(-c2ccccc2)c2ccccc12)c1ccccc1 [Compound 96, O=S(=O)(CCSc1nnc(-c2ccccc2)c2ccccc12)c1ccccc1] | 68.8% | 97% | 105% | Yes | reversed MDR in A2780-ADR cells | 58% | 
O=S(=O)(Cc1nc2ccccc2n1CC(O)c1ccc(Cl)cc1)c1ccccc1 (stereo not shown) [Compound 97, OC(Cn1c(CS(=O)(=O)c2ccccc2)nc2ccccc12)c1ccc(Cl)cc1] | 44.3% |  | 92.5% | Yes | reversed MDR in A2780-ADR cells | 47% and 29% | 
COc1cccc(N2CCN(c3ccc4nnc(CCC(=O)Nc5ccc(F)c(F)c5)n4n3)CC2)c1 [Compound 101, COc1cccc(c1)N1CCN(CC1)c1ccc2nnc(CCC(=O)Nc3ccc(F)c(F)c3)n2n1] | 41.5% | 93% | 88% | No | reversed MDR in A2780-ADR cells | 46% | 
Cc1ccc(-c2noc(-c3cn(Cc4ccc(NS(=O)(=O)c5ccccc5F)cc4)cn3)n2)cc1 [Compound 103, Cc1ccc(cc1)-c1noc(n1)-c1cn(Cc2ccc(NS(=O)(=O)c3ccccc3F)cc2)cn1] | 44.4% | 69% | 70.4% | No | reversed MDR in A2780-ADR cells |  | viability at 15 µM [1, 6]: 67%
Cc1onc(-c2ccccc2)c1-c1nnc(Cn2cnc3ccccc3c2=O)o1 [Compound 111, Cc1onc(c1-c1nnc(Cn2cnc3ccccc3c2=O)o1)-c1ccccc1] | 47.6% | 95% and 98% | 97.3% | No | reversed MDR in A2780-ADR cells | 52% and 38% | 
O=C(NCc1cccc(F)c1)c1nnn2c1Sc1c(C(=O)NCc3cccc(F)c3)nnn1CC2 [Compound 122, Fc1cccc(CNC(=O)c2nnn3CCn4nnc(C(=O)NCc5cccc(F)c5)c4Sc23)c1] | 45.8% | 104% and 83% | 89.7% | Yes | reversed MDR in A2780-ADR cells | 50% and 51% and 45% | 
COc1ccc2c3c([nH]c2c1)[C@H](CC(C)C)N1C(=O)[C@H](CCC(=O)OC(C)(C)C)NC(=O)[C@@H]1C3 [Ko143, reference compound] |  |  |  |  |  |  | Mean % Survival [1, 8]: 77.3%; % Survival (individual sample) ([1]; A2780-ADR cells, 1 µM compound + 500 nM PTX, single samples (trials 1-3, samples 1-4)): 70% and 74% and 82% and 83% and 73% and 76% and 85% and 71% and 75% and 84%; Mean % Survival ([1]; A2780-ADR cells, 1 µM compound alone, mean of 12 samples): 102.8%; % Survival (individual sample) ([1]; A2780-ADR cells, 1 µM compound alone, single samples (trials 1-3, samples 1-4)): 103% and 101% and 106% and 119% and 127% and 112% and 96% and 91% and 87% and 92% and 99%
COc1cc2c(cc1OC)CN(CCc1ccc(NC(=O)c3cc(OC)c(OC)cc3NC(=O)c3cnc4ccccc4c3)cc1)CC2 [Tariquidar, reference compound] |  |  |  |  |  |  | Mean % Survival [1, 8]: 55.3%; % Survival (individual sample) ([1]; A2780-ADR cells, 1 µM compound + 500 nM PTX, single samples (trials 1-3, samples 1-4), listed as TQR): 58% and 59%; viability at 1 µM ([1]; Homo sapiens, A2780 ADR, A2780-ADR cells, 1 µM compound alone, mean of 12 samples, read-out: Mean % Survival): 91%
